# Patent US20100311714A1, “1H-IMIDAZO[4,5-c]QUINOLINONE COMPOUNDS” (priority 2009, published 2010)
# Target: T1, PI3K gamma (Homo sapiens, UniProt P48736)
# T1 construct: His tag (C); made in house; host or cells: construct from Roger Williams lab (pVL1393); baculovirus BV950; Tn5 (Trichoplusia ni) or TiniPro insect cells
# Assay: PI3K gamma kinase assay (Kinase-Glo luminescence)
# Assay type: biochemical
# Conditions: read-out: PI3Kgamma/IC50
# Experimental: In a more preferred assay, the kinase reaction is performed in a final volume of 10 μL per well of a low volume non binding CORNING, 384 well black plate (Cat. No. #3676). The final concentrations of ATP and phosphatidyl inositol (PI) in the assay are 1 μM and 10 μg/mL respectively. The reaction is started by the addition of ATP.
# The components of the assay are added per well as follows:
# 50 nL test compounds in 90% DMSO per well, in columns 1-20, 8 concentrations (⅓ and 1/3.33 serial dilution step) in single. • Low control: […] of 90% DMSO in half the wells of columns 23-24 (0.45% in final). • High control: 50 nL of reference compound (e.g. compound of Example 7 in WO 2006/122806) in the other half of columns 23-24 (2.5 μM in final). • Standard: 50 nL of reference compound as just mentioned diluted as the test compounds in columns 21-22 • 20 mL ‘buffer’ are prepared per assay: • 200 μL of 1M TRIS HCl pH7.5 (10 mM in final) • 60 μL of 1M MgCl2 (3 mM in final) • 500 μL of 2M NaCl (50 mM in final) • 100 μL of 10% CHAPS (0.05% in final) • 200 μL of 100 mM DTT (1 mM in final) • 18.94 mL of nanopure water • 10 mL ‘PI’ are prepared per assay: • 200 μL of 1 mg/ml L-alpha-Phosphatidylinositol (Liver Bovine, Avanti Polar Lipids Cat. No. 840042C MW=909.12) prepared in 3% OctylGlucoside (10 μg/ml in final) • 9.8 mL of ‘buffer’ • 10 mL ‘ATP’ are prepared per assay: • 6.7 μL of 3 mM stock of ATP giving a final concentration of 1 μM per well • 10 mL of ‘buffer’ • 2.5 mL of each PI3K construct are prepared per assay in ‘PI’ with the following final concentration: • 10 nM PI3K alfa EMV B1075 • 25 nM beta EMV BV949 • 10 nM delta EMV BV1060 • 150 nM gamma EMV BV950 • 5 μL of ‘PI/PI3K’ are added per well. • 5 μl ‘ATP’ are added per well to start the reaction. • The plates are then incubated at room temperature for 60 minutes (alfa, beta, delta) or 120 minutes (gamma). • The reaction is terminated by the addition of 10 μL Kinase-Glo (Promega Cat. No. #6714). • The assay plates are read after 10 minutes in Synergy 2 reader (BioTek, Vermont USA) with an integration time of 100 milliseconds and sensitivity set to 191. • Output: The High control is around 60′000 counts and the Low control is 30′000 or lower • This luminescence assay gives a useful Z′ ratio between 0.4 and 0.7
# PI3K gamma is purified in two chromatographic steps: immobilized metal affinity chromatography (IMAC) on a Ni Sepharose resin (GE Healthcare) and gel filtration (GFC) utilizing a Superdex 200 26/60 column (GE Healthcare). All buffers are chilled to 4° C. and lysis is performed chilled on ice. Column fractionation is performed rapidly at room temperature. Typically frozen insect cells are lysed in a hypertonic lysis buffer and applied to a prepared IMAC column. The resin is washed with 3-5 column volumes of lysis buffer, followed by 3-5 column volumes wash buffer containing 45 mM imidazole, and the target protein is then eluted with a buffer containing 250 mM imidazole. Fractions are analyzed by Coomassie stained SDS-PAGE gels, and fractions containing target protein are pooled and applied to a prepared GFC column. Fractions from the GFC column are analyzed by Coomassie stained SDS-PAGE gels, and fractions containing target protein are pooled. The final pool is dialyzed into a storage buffer containing 50% glycerol and stored at −20° C. The final pool is assayed for activity in the phosphoinostitol kinase assay.
# IC50 is determined by a four parameter curve fitting routine that comes along with “excel fit”. A 4 Parameter logistic equation is used to calculate IC50 values (IDBS XLfit) of the percentage inhibition of each compound at 8 concentrations (usually 10, 3.0, 1.0, 0.3, 0.1, 0.030, 0.010 and 0.003 μM). Alternatively, IC50 values are calculated using idbsXLfit model 204, which is a 4 parameter logistic model.
# T1 sequence (P48736 144-1102 limits assumed): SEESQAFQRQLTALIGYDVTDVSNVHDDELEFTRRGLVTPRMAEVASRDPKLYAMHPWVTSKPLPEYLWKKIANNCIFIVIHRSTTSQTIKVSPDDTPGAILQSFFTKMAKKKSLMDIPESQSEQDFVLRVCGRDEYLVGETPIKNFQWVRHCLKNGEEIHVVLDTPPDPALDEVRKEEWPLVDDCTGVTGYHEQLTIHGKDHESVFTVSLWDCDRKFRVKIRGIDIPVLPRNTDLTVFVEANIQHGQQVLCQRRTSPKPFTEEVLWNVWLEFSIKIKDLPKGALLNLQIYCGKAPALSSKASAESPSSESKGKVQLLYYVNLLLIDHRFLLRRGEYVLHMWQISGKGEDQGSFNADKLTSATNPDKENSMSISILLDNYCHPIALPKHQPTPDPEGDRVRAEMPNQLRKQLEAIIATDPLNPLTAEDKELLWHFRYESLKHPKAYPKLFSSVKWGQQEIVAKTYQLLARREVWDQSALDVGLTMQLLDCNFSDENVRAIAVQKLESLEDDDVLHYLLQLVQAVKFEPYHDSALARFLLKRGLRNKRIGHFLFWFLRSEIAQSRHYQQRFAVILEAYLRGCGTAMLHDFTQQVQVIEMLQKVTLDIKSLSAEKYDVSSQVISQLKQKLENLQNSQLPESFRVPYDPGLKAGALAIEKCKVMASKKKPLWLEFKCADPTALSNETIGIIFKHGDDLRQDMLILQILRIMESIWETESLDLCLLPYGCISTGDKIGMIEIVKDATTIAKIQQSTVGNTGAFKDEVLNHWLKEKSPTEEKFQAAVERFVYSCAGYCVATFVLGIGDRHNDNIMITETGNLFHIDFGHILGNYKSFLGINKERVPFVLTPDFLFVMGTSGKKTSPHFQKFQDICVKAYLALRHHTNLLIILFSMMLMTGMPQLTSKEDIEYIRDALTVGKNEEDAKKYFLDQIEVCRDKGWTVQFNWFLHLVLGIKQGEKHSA
row,IC50 [nM],Structure (SMILES)
1,131,"COc1ncccc1-n1c(=O)n(C)c2cnc3ccc(-c4cnc(N)c(C(F)(F)F)c4)cc3c21 [Example 1.3, 8-(6-Amino-5-trifluoromethyl-pyridin-3-yl)-1-(2-methoxy-pyridin-3-yl)-3-methyl-1,3-dihydro-imidazo[4,5-c]quinolin-2-one]"
2,331,"CNc1ncc(-c2ccc3ncc4c(c3c2)n(-c2cccnc2C)c(=O)n4C)cn1 [Example 2.2, 3-Methyl-8-(2-methylamino-pyrimidin-5-yl)-1-(2-methyl-pyridin-3-yl)-1,3-dihydro-imidazo[4,5-c]quinolin-2-one]"
3,211,"CCOc1ccc(-c2ccc3ncc4c(c3c2)n(-c2cccnc2OC)c(=O)n4C)cn1 [Example 1.5, 8-(6-Ethoxy-pyridin-3-yl)-1-(2-methoxy-pyridin-3-yl)-3-methyl-1,3-dihydro-imidazo[4,5-c]quinolin-2-one]"
4,365,"COc1ccc(-c2ccc3ncc4c(c3c2)n(-c2cccnc2)c(=O)n4C)cc1OC [Example 5.2, 8-(3,4-Dimethoxy-phenyl)-3-methyl-1-pyridin-3-yl-1,3-dihydro-imidazo[4,5-c]quinolin-2-one]"
5,517,"COc1ccc(-c2ccc3ncc4c(c3c2)n(-c2ncccc2C)c(=O)n4C)cn1 [Example 3.13, 8-(6-Methoxy-pyridin-3-yl)-3-methyl-1-(3-methyl-pyridin-2-yl)-1,3-dihydro-imidazo[4,5-c]quinolin-2-one]"
6,227,"CNc1ccc(-c2ccc3ncc4c(c3c2)n(-c2cccnc2OC)c(=O)n4C)cn1 [Example 1.4, 1-(2-Methoxy-pyridin-3-yl)-3-methyl-8-(6-methylamino-pyridin-3-yl)-1,3-dihydro-imidazo[4,5-c]quinolin-2-one]"
7,237,"COc1ccc(-c2ccc3ncc4c(c3c2)n(-c2cccnc2OC)c(=O)n4C)cn1 [Example 1.1, 1-(2-Methoxy-pyridin-3-yl)-8-(6-methoxy-pyridin-3-yl)-3-methyl-1,3-dihydro-imidazo[4,5-c]quinolin-2-one]"
8,404,"Cc1cccnc1-n1c(=O)n(C)c2cnc3ccc(-c4cnc5ccccc5c4)cc3c21 [Example 3.8, 3-Methyl-1-(3-methyl-pyridin-2-yl)-8-quinolin-3-yl-1,3-dihydro-imidazo[4,5-c]quinolin-2-one]"
9,377,"COc1ccc(-c2ccc3ncc4c(c3c2)n(-c2cccnc2)c(=O)n4C)cn1 [Example 5.4, 8-(6-Methoxy-pyridin-3-yl)-3-methyl-1-pyridin-3-yl-1,3-dihydro-imidazo[4,5-c]quinolin-2-one]"
10,587,"CCOc1ccc(-c2ccc3ncc4c(c3c2)n(-c2cccnc2C)c(=O)n4C)cn1 [Example 2.1, 8-(6-Ethoxy-pyridin-3-yl)-3-methyl-1-(2-methyl-pyridin-3-yl)-1,3-dihydro-imidazo[4,5-c]quinolin-2-one]"
